Where two headings read alike, the source gives them in different places.
Key:
in vitro = details: African green monkey
[1] = test system: RPMI-8226 (leukemia cell line); experiment: NCI-60 single-dose assay; type: cell-based, human; details: for inhibition at 10 µM: Homo sapiens, RPMI-8226, read-out: growth inhibition (GI%) and cytotoxicity (negative values)
Source text: (§1) We first evaluated the cytotoxic activity of tricyclic-pyrrole carboxamides 1–20 using the NCI-60 cell line panel, representing nine different human cancers: leukemia, melanoma, and cancers of the lung, colon, central nervous system (CNS), ovary, kidney, prostate, and breast (the one-dose graph for compounds 1–20 is reported in Supplementary Materials, Figures S43–S62). Compounds 1, 5, 10, 11, 17, and 20 satisfied pre-determined threshold inhibition criteria in a minimum number of cell lines; therefore, they were also tested in the full five-dose assay (Figures S63–S68 in the Supplementary Materials).

[2] = test system: SN12C (renal cancer cell line); experiment: NCI-60 single-dose assay; type: cell-based, human; details: for inhibition at 10 µM: Homo sapiens, read-out: growth inhibition (GI%) and cytotoxicity (negative values)
Source text: as §1

[3] = test system: MALME-3M (melanoma cell line); experiment: NCI-60 single-dose assay; type: cell-based, human; details: Homo sapiens, Malme-3M, read-out: growth inhibition (GI%) and cytotoxicity (negative values)
Source text: as §1

[4] = test system: MOLT-4 (leukemia cell line); experiment: NCI-60 single-dose assay; type: cell-based, human; details: for inhibition at 10 µM: Homo sapiens, MOLT-4, read-out: growth inhibition (GI%) and cytotoxicity (negative values)
Source text: as §1

[5] = test system: RXF 393 (renal cancer cell line); experiment: NCI-60 single-dose assay; type: cell-based, human; details: Homo sapiens, RXF 393, read-out: growth inhibition (GI%) and cytotoxicity (negative values)
Source text: as §1

M14 (melanoma cell line) = experiment: NCI-60 single-dose assay; type: cell-based, human; details: Homo sapiens, M14, read-out: growth inhibition (GI%) and cytotoxicity (negative values)
Source text: as §1

[6] = test system: MDA-MB-231/ATCC (breast cancer cell line); experiment: NCI-60 single-dose assay; type: cell-based, human; details: for inhibition at 10 µM: Homo sapiens, MDA-MB-231, read-out: growth inhibition (GI%) and cytotoxicity (negative values)
Source text: as §1

[7] = test system: MCF-7 (breast cancer cell line); experiment: NCI-60 single-dose assay; type: cell-based, human; details: for inhibition at 10 µM: Homo sapiens, MCF7, read-out: growth inhibition (GI%) and cytotoxicity (negative values), MCF-7, 10^−5 M
Source text: as §1

[8] = test system: NCI-H226 (non-small cell lung cancer cell line); experiment: NCI-60 single-dose assay; type: cell-based, human; details: for inhibition at 10 µM: Homo sapiens, NCI-H226, read-out: growth inhibition (GI%) and cytotoxicity (negative values)
Source text: as §1

[9] = test system: SK-MEL-2 (melanoma cell line); experiment: NCI-60 single-dose assay; type: cell-based, human; details: Homo sapiens, SK-MEL-2, read-out: growth inhibition (GI%) and cytotoxicity (negative values)
Source text: as §1

[10] = test system: UACC-257 (melanoma cell line); experiment: NCI-60 single-dose assay; type: cell-based, human; details: Homo sapiens, UACC-257, read-out: growth inhibition (GI%) and cytotoxicity (negative values)
Source text: as §1

[11] = test system: UO-31 (renal cancer cell line); experiment: NCI-60 single-dose assay; type: cell-based, human; details: for inhibition at 10 µM: Homo sapiens, UO-31, read-out: growth inhibition (GI%) and cytotoxicity (negative values)
Source text: as §1

[12] = test system: EKVX (non-small cell lung cancer cell line); experiment: NCI-60 single-dose assay; type: cell-based, human; details: for inhibition at 10 µM: Homo sapiens, read-out: growth inhibition (GI%) and cytotoxicity (negative values)
Source text: as §1

[13] = test system: HT29 (colon cancer cell line); experiment: NCI-60 single-dose assay; type: cell-based, human; details: for inhibition at 10 µM: Homo sapiens, HT-29, read-out: growth inhibition (GI%) and cytotoxicity (negative values)
Source text: as §1

[14] = test system: SK-MEL-28 (melanoma cell line); experiment: NCI-60 single-dose assay; type: cell-based, human; details: Homo sapiens, SK-MEL-28, read-out: growth inhibition (GI%) and cytotoxicity (negative values)
Source text: as §1

[15] = test system: SK-MEL-5 (melanoma cell line); experiment: NCI-60 single-dose assay; type: cell-based, human; details: human
Source text: as §1

[16] = test system: CAKI-1 (renal cancer cell line); experiment: NCI-60 single-dose assay; type: cell-based, human; details: for inhibition at 10 µM: Homo sapiens, CAKI-1, read-out: growth inhibition (GI%) and cytotoxicity (negative values)
Source text: as §1

[17] = test system: NCI-H460 (non-small cell lung cancer cell line); experiment: NCI-60 single-dose assay; type: cell-based, human; details: for inhibition at 10 µM: Homo sapiens, NCI-H460, read-out: growth inhibition (GI%) and cytotoxicity (negative values)
Source text: as §1

[18] = test system: 786-0 (renal cancer cell line); experiment: NCI-60 single-dose assay; type: cell-based, human; details: for inhibition at 10 µM: Homo sapiens, 786-0, read-out: growth inhibition (GI%) and cytotoxicity (negative values)
Source text: as §1

[19] = test system: NCI-H23 (non-small cell lung cancer cell line); experiment: NCI-60 single-dose assay; type: cell-based, human; details: for inhibition at 10 µM: Homo sapiens, NCI-H23, read-out: growth inhibition (GI%) and cytotoxicity (negative values)
Source text: as §1

[20] = test system: ZIKV, strain Brazil/2016/INMI1; experiment: ZIKV viral yield reduction assay on Huh-7 cells; type: cell-based, Zika virus
Description: We developed a protocol to screen the potential antiviral activity of compounds 1–20 against ZIKV (strain Brazil) on Huh-7 cells, against an H1N1 IAV strain (PR/8/1934) on MDCK cells, and against SARS-CoV-2 (strain Milano) on Vero-TMPRSS. Each compound was tested in duplicate at concentrations of 50 μM, 5 μM, and 0.5 μM. Treatment was applied immediately after infection, and at 24–48 h post-infection, supernatants were collected to assess viral yield, determined as PFU/mL for ZIKV and SARS-CoV-2 or as TCID50/mL for IAV. The test allowed us to evaluate both the antiviral action and the cytotoxicity of each compound, comparing them with reference compounds, such as sofosbuvir for ZIKV and EIDD-1931 for IAV and SARS-CoV-2 (Supplementary Materials, Figures S87–S89).
Viral yield reduction assays for ZIKV and SARS-CoV-2 were performed as previously described by Plicanti. Briefly, 1 × 10^4 Huh-7 cells/well and 1.2 × 10^4 VERO TMPRSS cells/well were infected with ZIKV (MOI 1) or SARS-CoV-2 (MOI 0.05) in a primary 96-well plate for 2 h at 37 °C, 5% CO2. […] Supernatants were collected after 48 h (Huh-7) or 24 h (VERO TMPRSS), diluted 3-fold, and added onto VERO E6 or VERO TMPRSS monolayers, respectively. After 2 h at 37 °C, the inoculum was replaced with 0.75% carboxymethyl cellulose (Merck®, Darmstadt, Germany) in DMEM 2% FBS. After 48–72 h, cells were then fixed with 4% buffered formalin solution (Merck®, Darmstadt, Germany) and stained with 1% crystal violet (Merck®, Darmstadt, Germany). Titres and percentage of inhibition were calculated as follows:
PFU/mL = number of plaques*3^n/vol infection, where n is the dilution where plaques were counted:% inhibition = 100 × (1 − Titre-compound/Titre-untreated control) where Titre-compound and Titre-untreated control are the titres (PFU/mL) obtained on cells treated with compound or DMSO, respectively.
SI was obtained by dividing CC50 by EC50 for each drug/virus/cell line. Compounds with SI values ≥ 10 were active in vitro.

[21] = test system: NCI-H522 (non-small cell lung cancer cell line); experiment: NCI-60 single-dose assay; type: cell-based, human; details: NCI-H522; 10^−5 M, single dose
Source text: as §1

[22] = Zika virus, Huh-7, read-out: ZIKV/Huh‐7 EC50
[23] = Zika virus, preliminary screening (50, 5, 0.5 μM), Huh-7, read-out: ZIKV/Huh‐7 EC50

Molecule	CC50 at 24 h (in vitro) [µM]	inhibition at 10 µM [1] [%]	inhibition at 10 µM [2] [%]	inhibition at 10 µM [3] [%]	inhibition at 10 µM [4] [%]	inhibition at 10 µM [5] [%]	inhibition at 10 µM (M14 (melanoma cell line)) [%]	inhibition at 10 µM [6] [%]	inhibition at 10 µM [7] [%]	inhibition at 10 µM [8] [%]	inhibition at 10 µM [9] [%]	inhibition at 10 µM [10] [%]	inhibition at 10 µM [11] [%]	inhibition at 10 µM [12] [%]	inhibition at 10 µM [13] [%]	inhibition at 10 µM [14] [%]	growth inhibition (GI%) and cytotoxicity (negative values) [15] [%]	inhibition at 10 µM [16] [%]	inhibition at 10 µM [17] [%]	EC50 [20, 23] [µM]	also measured
COc1ccccc1N1CCN(CCNC(=O)c2c(Cl)[nH]c3c2CCCc2ccccc2-3)CC1 [Compound 15]	38	70.1	< 60	70.1	76.5	< 60	84.8	< 60	73	< 60	< 60	67	63.6	81.7	79.4	< 60	−75.22	61	< 60	–	inhibition at 10 µM [18]: < 60%; inhibition at 10 µM [19]: < 60%; EC50 [20, 22]: 4.74 µM
O=C(NCCN1CCN(c2ccc(Cl)cc2)CC1)c1c(Cl)[nH]c2c1CCCc1ccccc1-2 [Compound 13]	77.2	67.4	–	< 60	61.7	–	< 60	< 60	< 60	–	< 60	< 60	–	–	69.2	< 60	−21.64	–	–	–	CC50 (in vitro): 99 µM; selectivity index (SI) ([20]; ZIKV, Huh-7 cells, CC50/EC50): 20.20; EC50 ([20]; Zika virus, Huh-7, 48 h): 3.08 µM; EC50 [20, 22]: 1.3 µM
N-(3-(4-Benzylpiperazin-1-yl)propyl)-2-chloro-1,4,5,6-tetrahydrobenzo[6,7]cyclohepta[1,2-b]pyrrole-2-carboxamide [Compound 11]	–	–	–	–	–	–	–	–	–	–	–	–	–	–	–	–	–	–	–	–	growth inhibition (GI%) and cytotoxicity (negative values) ([1]; RPMI-8226, 10^−5 M, single dose): 92.04%; growth inhibition (GI%) and cytotoxicity (negative values) ([2]; 10^−5 M, single dose): – (GI% values < 60% and no cytotoxicity); growth inhibition (GI%) and cytotoxicity (negative values) ([4]; MOLT-4, 10^−5 M, single dose): 99.74%; growth inhibition (GI%) and cytotoxicity (negative values) ([6]; MDA-MB-231/ATCC, 10^−5 M, single dose): 61.71%; growth inhibition (GI%) and cytotoxicity (negative values) [21]: 82.24%; growth inhibition (GI%) and cytotoxicity (negative values) ([7]; MCF-7, 10^−5 M): 90.34%; growth inhibition (GI%) and cytotoxicity (negative values) ([8]; NCI-H226, 10^−5 M, single dose): 64.87%; growth inhibition (GI%) and cytotoxicity (negative values) ([11]; UO-31, 10^−5 M, single dose): 63.12%; growth inhibition (GI%) and cytotoxicity (negative values) ([12]; 10^−5 M, single dose): 70.83%; growth inhibition (GI%) and cytotoxicity (negative values) ([13]; HT29, 10^−5 M, single dose): 91.03%; growth inhibition (GI%) and cytotoxicity (negative values) ([16]; CAKI-1, 10^−5 M, single dose): 91.53%; growth inhibition (GI%) and cytotoxicity (negative values) ([17]; NCI-H460, 10^−5 M, single dose): 98.58%; growth inhibition (GI%) and cytotoxicity (negative values) ([18]; 786-0, 10^−5 M, single dose): 72.88%; growth inhibition (GI%) and cytotoxicity (negative values) ([19]; NCI-H23, 10^−5 M, single dose): – (GI% values < 60% or no cytotoxicity); EC50 ([20]; preliminary screening (50, 5, 0.5 μM), Huh-7, read-out: ZIKV/Huh‐7 EC50): 3.49 µM
O=C(NCCN1CCN(c2ccccc2Cl)CC1)c1c(Cl)[nH]c2c1CCCc1ccccc1-2 [Compound 14]	36.7	60.9	–	< 60	< 60	–	< 60	< 60	< 60	–	< 60	< 60	63.6	72.7	< 60	< 60	−3.84	–	–	4.74	–
N#Cc1ccccc1N1CCN(CCNC(=O)c2c(Cl)[nH]c3c2CCCc2ccccc2-3)CC1 [Compound 18, 2-Chloro-N-(2-(4-(2-cyanophenyl)piperazin-1-yl)ethyl)-1,4,5,6-tetrahydrobenzo[6,7]cyclohepta[1,2-b]pyrrole-3-carboxamide]	35	69.1	< 60	< 60	81.8	< 60	< 60	< 60	78.5	< 60	< 60	< 60	67	92.8	64.2	< 60	−67.02	62.7	< 60	4.11	inhibition at 10 µM [18]: < 60%; inhibition at 10 µM [19]: < 60%
O=C(NCCN1CCN(c2ccccc2)CC1)c1c(Cl)[nH]c2c1CCCc1ccccc1-2 [Compound 12, 2-Chloro-N-(2-(4-phenylpiperazin-1-yl)ethyl)-1,4,5,6-tetrahydrobenzo[6,7]cyclohepta[1,2-b]pyrrole-3-carboxamide]	72.8	< 60	–	< 60	< 60	–	< 60	–	60.9	–	< 60	< 60	–	72.3	65.5	< 60	−7.83	–	–	1.54	CC50 (in vitro): 74.5 µM

From PMC12566046, “Arylpiperazinyl-Benzocycloheptapyrrole-Carboxamides Endowed with Dual Anticancer and Antiviral Activities” (Molecules, 2025)
